{
  "source": "a melting point compilation (Tetko et al.; mined from patent text by program, amines drawn as free bases though some values may be those of a salt)",
  "data": [
    {"units": {"melting point": "°C"}, "values": [
      {"smiles": "COC(=O)Cn1nnc(-c2ccc(C=Cc3ccc(-c4nc5ccccc5o4)cc3)cc2)c1C#N", "melting point": "248 to 249"},
      {"smiles": "Cc1cccc2c1nc(-c1c(F)cccc1F)n2Cc1ccccc1", "melting point": "112 to 117"},
      {"smiles": "CN1C2CCCC1CC(NC(=O)c1cc(Cl)cc3nc(-c4ccccc4)oc13)C2", "note": "(centres undefined)", "melting point": "199 to 201"},
      {"smiles": "N#Cc1cc2[nH]c(=O)c(=O)n(C3CCCCC3)c2c2ccccc12", "melting point": "> 300"},
      {"smiles": "COC(=O)c1ccc(OCC(N)=O)c(N)c1", "melting point": "181 to 182"},
      {"smiles": "Nc1nc(=O)n(C2C=CC(CO)O2)cc1F", "note": "(centres undefined)", "melting point": 206},
      {"smiles": "CN(C)CC1CCc2cc(OC(=O)c3ccc(-c4ccccc4)cc3)ccc2C1", "note": "(centres undefined)", "melting point": "85 to 86"},
      {"smiles": "Cc1cc(C2(C(F)(F)F)CN=C(c3ccc(Cl)cc3)S2)ccc1NC(=O)c1cccc(I)c1C(=O)NC(C)C", "note": "(centres undefined)", "melting point": "121 to 123"},
      {"smiles": "Cc1cc2c(c(C)c1NC(=O)NC(C)(C)C)C(c1ccc(C(C)C)cc1)CO2", "note": "(single isomer, unassigned; (+))", "melting point": "205 to 206"},
      {"smiles": "N#Cc1ccc(CCc2cc(Cl)ccc2OCc2ccccc2)cc1", "melting point": "77 to 79"},
      {"smiles": "COc1cc([N+](=O)[O-])ccc1S(=O)(=O)Nc1ccc(C)cc1", "melting point": "126 to 129"},
      {"smiles": "CSc1ccc(COc2cccc(C(=O)Nc3ccc(C#N)cn3)c2)cc1", "melting point": "146 to 147"},
      {"smiles": "COc1cccnc1C(=O)NCCNC(=O)OC(C)(C)C", "melting point": 115},
      {"smiles": "Cc1ccc(-c2cncc(/C=C/C(=O)O)c2)cc1", "melting point": "208 to 211"},
      {"smiles": "CNS(=O)(=O)c1cn(C)c2ccc(OC)cc2c1=O", "melting point": "262 to 264"},
      {"smiles": "COc1cccc2c1CCC1C(=O)N(C(C)c3ccccc3)C(=O)C21", "note": "(centres undefined)", "melting point": "101 to 103"},
      {"smiles": "CC(C)(C)NCC(O)c1ccc(N)c(C#N)c1F", "note": "(centres undefined)", "melting point": "150 to 151"},
      {"smiles": "c1ccc(-c2nc(COc3ccc(CCCn4ccnc4)cc3)co2)cc1", "melting point": "111 to 112"},
      {"smiles": "N=C(N)c1ccc(C(=O)N[C@@H](Cc2ccccc2)C(=O)N2CCc3nn(CC(=O)O)cc3C2)cc1", "melting point": "146 to 150"},
      {"smiles": "Cc1ccc(-n2nc(C(=O)NC(C)(C)C)c3c2C2CCC3C2)cc1", "note": "(centres undefined)", "melting point": "135 to 137"},
      {"smiles": "Cc1nc(NC(CO)C(C)C)c2c(n1)c(C)nn2C", "note": "(centres undefined)", "melting point": "166 to 168"},
      {"smiles": "Cc1c(C=CCO)[nH]c(=O)c2c1ccc1nc(Nc3c(Cl)cccc3Cl)n(C)c12", "melting point": "298 to 300"},
      {"smiles": "COc1cc(C=NNC(=O)c2ccc(O)c(N)c2)cc(OC)c1OCc1ccc(C(C)C)cc1", "melting point": "174 to 175"},
      {"smiles": "COc1ccc(Nc2ccccc2CCC(=O)c2ccccc2)cc1", "melting point": "110 to 112"},
      {"smiles": "CCCCCCCCc1ccc(C(=O)CCCCCC(=O)OCC)cc1", "melting point": "38 to 40"},
      {"smiles": "CCOC(=O)N1CCN(C(=O)C2CCC(=O)N2)CC1", "note": "(centres undefined)", "melting point": "147 to 148"},
      {"smiles": "NP(N)(=O)NC(=O)C=Cc1ccccc1", "melting point": "176 to 178"},
      {"smiles": "Nc1sc(CC(=O)O)cc1C(=O)c1ccccc1Cl", "melting point": "172 to 182"},
      {"smiles": "COC(=O)Cn1c(C)cc(Cc2ccc(F)cc2)c(NC(=O)OCc2ccccc2)c1=O", "melting point": 236},
      {"smiles": "CCCc1ccc(OCc2ccc(OCc3nc(-c4ccccc4)oc3C)cc2)cc1OCC(=O)O", "melting point": "162 to 163"},
      {"smiles": "C[C@@H](n1cnc2cc(C(F)(F)F)ccc2c1=O)[C@](O)(Cn1cncn1)c1ccc(Cl)cc1Cl", "melting point": "158 to 160"},
      {"smiles": "COc1ccc(-c2cc(=Nc3c(C)cc(C)cc3C)n(C)c(=O)n2CC(=O)O)cc1OC", "melting point": "148 to 150"},
      {"smiles": "COC(=O)C1=C(C)Nc2nc(N3CCOCC3)nc(N3CCOCC3)c2C1c1cccc([N+](=O)[O-])c1", "note": "(centres undefined)", "melting point": 165},
      {"smiles": "CN1CCC(N2C(=O)CN=C(c3ccccc3Cl)c3cc(Cl)ccc32)CC1", "melting point": "146 to 147"},
      {"smiles": "CCCCCCCC(=O)Nc1cccc(-c2cc(=O)cc(C(=O)O)o2)c1", "melting point": "242 to 247"},
      {"smiles": "C=C1Oc2cc(OS(=O)(=O)C(F)(F)F)ccc2C(=O)C1c1ccccc1", "note": "(centres undefined)", "melting point": "133 to 135"},
      {"smiles": "Cc1cc(C)c2ccc(N3C(=O)c4nccnc4C3=O)nc2n1", "melting point": 250},
      {"smiles": "O=C(Nc1ccc(N2CCN(C(=O)Nc3ccc(OCCO)cc3C(F)(F)F)CC2)cc1)Nc1cccc2c1OCC2", "melting point": "218 to 220"},
      {"smiles": "O=c1oc2ccc(-c3ccc(F)cc3F)cc2c(=O)n1-c1ccc(C(F)(F)F)cc1", "melting point": "209 to 210"},
      {"smiles": "Cc1nc(N2CCN(Cc3ccccc3)CC2)ncc1C(N)=O", "melting point": "195 to 196"},
      {"smiles": "CCOCc1nc2c(N)nc3cc(OCc4ccccc4Cl)ccc3c2n1CC(C)(C)NS(C)(=O)=O", "melting point": "253 to 255"},
      {"smiles": "CC(=NOCC(=O)O)c1ccc(NS(C)(=O)=O)c(Oc2ccc(F)cc2F)c1", "melting point": "174 to 175"},
      {"smiles": "CC1C(=O)Oc2c(Oc3ccccc3F)cccc21", "note": "(centres undefined)", "melting point": "70 to 71.5"},
      {"smiles": "COc1cc2ncnc(NC3=CC(=O)C4(C(C)C)OC4C3=O)c2cc1OC", "note": "(centres undefined)", "melting point": "188 to 190"},
      {"smiles": "COc1cc(O)nc(C2CC2)n1", "melting point": 186},
      {"smiles": "CN(C)C1CCCN(C(=O)c2n[nH]c3ccccc23)C1", "note": "(centres undefined)", "melting point": "141 to 142"},
      {"smiles": "COc1ccc2c(c1OC)CN(c1nc(N)c3cc(OC)c(OC)c(OC)c3n1)CC2", "melting point": 190},
      {"smiles": "CCN(CC)CCOc1ccc(NC(=O)C#Cc2ccc(Cl)cc2Cl)cc1Cl", "melting point": "98 to 100"},
      {"smiles": "Cc1ccc(-c2cc(F)c(F)cc2-c2ccc(S(C)(=O)=O)cc2)cn1", "melting point": "141 to 142"}
    ]}
  ]
}
